Measured values taken from US11090391B2, “Protein nanocages with enhanced mucus penetration for targeted tissue and intracellular delivery” (The Johns Hopkins University, priority 2016, dated 2021).
Several values for one entry are separate records, joined by “and”; a condition that tells them apart may be missing. Identical values can stand only once.

How the values were obtained:
Hif-1α = Hif-1α expression, western blotting in 3LL cells; format: cell-based, mouse; conditions: 0.625 to 2.5 μM AF, dose- and time-dependent
Experimental: The inhibition was dose-dependent, i.e., increasing the amount of AF in the free AF or that in […] from 0.625 μM to 1.25 μM, further to 2.5 μM, decreased the level of Hif-1α expression. The inhibition was also time-dependent, i.e., the inhibition was more prominent after a 6 hour-incubation than a 24 h-incubation, and even more prominent than a 48 h-incubation. Hif-1α, a marker for tumor hypoxia, is an indicator of cancer progression, metastasis, and drug resistance in clinic.

3LL subcutaneous tumor = assay: Tumor growth, 3LL subcutaneous tumor model, tail vein injection; format: in vivo; conditions: day 10, injections at days 0, 2, 4, 6, 8
Experimental: […] was injected at the tail vein to assay the effect on tumor growth in a 3LL subcutaneous tumor model at several time points (0, 2, 4, 6, and 8 days post tumor development). At day 10 post tumor development, the tumor volume was reduced in the animals treated with AF, as well as in the animals treated with […] treatment.

[1] = Physicochemical properties (hydrodynamic diameter, ζ-potential, drug loading)
Experimental: The DOX conjugated PEG-FTn is denoted as FTn/FTn-PEG2k/DOX. […] The mixture was incubated for 1 hour and 1.5 mg EDC was added to activate a carboxyl group of each DOX-linker conjugate. The resultant compounds were analyzed using high-performance liquid chromatography (HPLC, Varian Inc.) equipped with a C18 reverse phase column. […] The final product was extensively dialyzed (10 kDa MWCO; Thermo Scientific) and purified with a PD-10 column.

[2] = In vitro pH-sensitive DOX release, dialysis; format: physicochemical
Experimental: At designated times up to 6 days, 150 μL of solution outside the dialysis bag was collected and the same amount of fresh PBS was added back. After 3 days of incubation, the buffer was adjusted to pH 5.0 to induce the release of DOX from PEG-FTn. The concentrations of released free DOX at varying time points were measured by HPLC.

3LL cells = assay: Intracellular trafficking, confocal microscopy; format: cell-based, mouse
[3] = tested on: 3LL-based tumor spheroids; assay: Penetration of DOX formulations in tumor spheroids; format: cell-based, mouse; conditions: 10 μM DOX concentration
Experimental: (§1) Multicellular tumor spheroid models consisting of different cancer cell lines were prepared by modifying a previously reported protocol (Friedrich J, et al, Nature Protocols, 4:309-324 (2009)). Briefly, 50 μL DMEM medium containing 1.5% agarose (wt/vol) was plated onto each well of a 96-well microtiter plate under sterile conditions. After the agarose solidifies, the plates were stored at room temperature until use. For the penetration study, 5×10^3 cells were seeded onto the agarose-plated 96-well plates. After 4-5 days culture to obtain multicellular tumor spheroids (400-500 μm in diameter), the tumor spheroids were carefully transferred into glass bottom dishes. […] After the 2-hour incubation, the cells were observed using confocal microscopy with Z-stack imaging at ˜10 μm intervals. […] The 3D images of spheroids were reconstructed by ZEN microscopy software (Carl Zeiss). For analyzing the penetration distance, the radial intensity distribution profile was determined using a custom-made MATLAB code where αtumor is the radius of individual spheroids and r is the radial distance from the spheroid center (r/αtumor=0 and 1 indicate the center and edge of the tumor spheroid, respectively). […] Quantification analysis of signal intensity was performed with ImageJ software (NIH).
(§2) Multicellular tumor spheroids were prepared and post-treatment analyzed as described in Example 4.

A549-based spheroids = assay: Penetration of DOX formulations in tumor spheroids; format: cell-based, human
Experimental: as §1, §2

H1975-based spheroids = assay: Penetration of DOX formulations in tumor spheroids; format: cell-based, human
Experimental: as §1, §2

H460-based spheroids = assay: Penetration of DOX formulations in tumor spheroids; format: cell-based, human
Experimental: as §1, §2

3LL tumor spheroids = assay: Growth delay of 3D cell spheroids; format: cell-based, mouse; conditions: 10 μM DOX, up to 11 days
Experimental: For cytotoxicity and growth delay experiments of 3D cell spheroids, 5×10^3 cells were seeded into the 96-well plates containing agarose. […] The diameters of tumor spheroids were recorded with a Zeiss Axiovert 200 phase-contrast microscope (Carl Zeiss) at the indicated time points.

[4] = tested on: 3LL-Luc orthotopic proximal lung cancer; assay: In vivo anti-cancer efficacy, orthotopic proximal lung cancer model; parameters: species or system mouse
Description: To evaluate the efficacy of PEG-FTn-DOX for treating lung airway cancer, an aggressive orthotopic mouse model was established of proximal lung cancer in inbred mice with intact host immunity. The model was established via intratracheal intubation of cancer cells into the tracheal and bronchial epithelium of lung airways (DuPage M, et al., Nature protocols, 4:1064-1072 (2009)), which was relevant to small cell lung cancer and squamous-cell lung cancer. Briefly, female C57BL/6 mice (6-8 weeks) were inoculated with 2.5×10^4 3 LL-Luc cells in 50 μL of DMEM medium via intratracheal intubation using a 22 G×1″ Safelet catheter (Exel International). Three days after the inoculation, bioluminescence signal in the lung was observed using a Xenogen IVIS Spectrum optical imaging system. […] The tumor growth was monitored at various time points using an IVIS imaging system and the bioluminescence signal in lung at different time points was quantitatively analyzed by the Living Image® (Caliper Life Sciences) software. The survival of mice was recorded daily, and data was analyzed by Kaplan-Meier survival curve.
The luciferase activity of 3LL-Luc was visualized and quantified by a Xenogen IVIS Spectrum optical imaging system. In brief, mice were anesthetized with 2% isoflurane in O2 and received intraperitoneal injection of D-luciferin solution in PBS at a dose of 150 mg/kg. Serial images were acquired between 5 and 20 minutes after the D-luciferin administration, and the bioluminescence signal intensity was quantified by the Living Image® software.

[5] = single intratracheal dose 0.25 mg/kg, 11 days after treatment

Acriflavine [AF]
Hif-1α expression (Hif-1α): inhibited Hif-1α expression | tumor volume (3LL subcutaneous tumor): reduced

FTn/FTn-PEG2k/DOX: DOX conjugated to FTn/FTn-PEG2k via acid-sensitive cis-aconityl linker
DOX molecules per PEG-FTn [1]: 88±5 and 88 ± 22 | Hydrodynamic diameter [1]: 15.3 ± 3.2 nm | ζ-potential [1]: −7.4 ± 2.8 mV | maximum release of DOX ([2]; pH 5.0, after 4 hours): ~80% | DOX released ([2]; pH 7.4, over 3 days, 37° C.): negligible | DOX found in cytoplasm compared with nucleus (3LL cells; 30 min after addition): ~95% | DOX found in cytoplasm compared with nucleus (3LL cells; 2 h after addition): ~55% | colocalization with lysosomes (3LL cells; 2 hours after addition): colocalized with lysosomes | intracellular localization of DOX (3LL cells; 2 hours after addition): observed in both the cytoplasm and nucleus | distribution in spheroids (3D confocal images) [3]: uniformly distributed throughout the entire tumor spheroid | mean fluorescence signal intensity in the entire spheroid vs free DOX [3]: significantly greater | penetration compared to free DOX (A549-based spheroids): Improved penetration | penetration compared to free DOX (H1975-based spheroids): Improved penetration | penetration compared to free DOX (H460-based spheroids): Improved penetration | delay of spheroid growth compared to free DOX (3LL tumor spheroids): superior ability of delaying the growth | progression-free survival ([4]; after 60 days): 60% | decrease in bioluminescence signal intensity compared to free DOX-treated mice [4, 5]: 17 fold | decrease in bioluminescence signal intensity compared to untreated mice [4, 5]: 40 fold
